Experimental data taken from the kinase profiling compilation of Christmann-Franck et al. (2016).

Key:
Experiment in all cases: KINOMEscan competition binding
Conditions in all cases: compound 0.1 µM
PRKCE (human) = PRKCE (human) (UniProt Q02156)
MAP3K12 (human) = MAP3K12 (human) (UniProt Q12852)
NUAK2 (human) = NUAK2 (human) (UniProt Q9H093)
RIPK4 (human) = RIPK4 (human) (UniProt P57078)
RPS6KB1 (human) = RPS6KB1 (human) (UniProt P23443)
BLK (human) = BLK (human) (UniProt P51451)
[1] = system: FLT3 (human), P36888 [K663Q]
PLK4 (human) = PLK4 (human) (UniProt O00444)
MAP2K6 (human) = MAP2K6 (human) (UniProt P52564)
EPHA4 (human) = EPHA4 (human) (UniProt P54764)
SRPK3 (human) = SRPK3 (human) (UniProt Q9UPE1)
CDK4 CCND1 (human) = CDK4 CCND1 (human) (UniProt P11802+P24385)
NEK3 (human) = NEK3 (human) (UniProt P51956)
ZAP70 (human) = ZAP70 (human) (UniProt P43403)
BMPR1A (human) = BMPR1A (human) (UniProt P36894)
LRRK2 (human) = LRRK2 (human) (UniProt Q5S007)
CHUK (human) = CHUK (human) (UniProt O15111)
MYLK (human) = MYLK (human) (UniProt Q15746)
AKT2 (human) = AKT2 (human) (UniProt P31751)
BTK (human) = BTK (human) (UniProt Q06187)
CSNK1E (human) = CSNK1E (human) (UniProt P49674)
CSNK1G1 (human) = CSNK1G1 (human) (UniProt Q9HCP0)
RPS6KA6 KD2 (human) = RPS6KA6 KD2 (human) (UniProt Q9UK32)
EPHB6 (human) = EPHB6 (human) (UniProt O15197)
MAP4K3 (human) = MAP4K3 (human) (UniProt Q8IVH8)
ITK (human) = ITK (human) (UniProt Q08881)
FLT4 (human) = FLT4 (human) (UniProt P35916)
ABL2 (human) = ABL2 (human) (UniProt P42684)
IRAK4 (human) = IRAK4 (human) (UniProt Q9NWZ3)
STK32B (human) = STK32B (human) (UniProt Q9NY57)
EPHA3 (human) = EPHA3 (human) (UniProt P29320)
MELK (human) = MELK (human) (UniProt Q14680)
MKNK1 (human) = MKNK1 (human) (UniProt Q9BUB5)
PRKX (human) = PRKX (human) (UniProt P51817)
[2] = system: ABL1 (human), P00519 [M351T]
IGF1R (human) = IGF1R (human) (UniProt P08069)
CDK18 (human) = CDK18 (human) (UniProt Q07002)
FLT1 (human) = FLT1 (human) (UniProt P17948)
BMP2K (human) = BMP2K (human) (UniProt Q9NSY1)
[3] = system: ABL1 (human), P00519 [Y253F]

RPS6KA6 KD2 (human), sequence (Q9UK32 whole entry, looked up): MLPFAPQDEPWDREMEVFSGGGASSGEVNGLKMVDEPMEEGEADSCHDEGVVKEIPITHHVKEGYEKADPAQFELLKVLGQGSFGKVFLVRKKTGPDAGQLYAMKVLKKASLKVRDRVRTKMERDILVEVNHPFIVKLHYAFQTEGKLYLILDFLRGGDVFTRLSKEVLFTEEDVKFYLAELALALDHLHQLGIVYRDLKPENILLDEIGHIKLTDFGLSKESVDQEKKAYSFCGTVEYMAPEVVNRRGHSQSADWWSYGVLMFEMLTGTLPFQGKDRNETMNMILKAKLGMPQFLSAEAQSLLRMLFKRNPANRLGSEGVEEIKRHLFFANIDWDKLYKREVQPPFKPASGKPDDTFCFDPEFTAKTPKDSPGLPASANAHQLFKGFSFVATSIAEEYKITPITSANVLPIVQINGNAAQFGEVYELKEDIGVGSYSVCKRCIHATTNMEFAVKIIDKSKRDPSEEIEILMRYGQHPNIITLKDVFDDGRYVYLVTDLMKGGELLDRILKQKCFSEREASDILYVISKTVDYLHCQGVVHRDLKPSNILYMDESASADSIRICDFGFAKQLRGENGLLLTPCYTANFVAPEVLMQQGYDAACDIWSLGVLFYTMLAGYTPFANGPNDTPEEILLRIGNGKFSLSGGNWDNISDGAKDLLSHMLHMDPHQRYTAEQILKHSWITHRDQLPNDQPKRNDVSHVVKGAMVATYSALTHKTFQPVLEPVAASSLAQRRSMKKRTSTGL
EPHA4 (human), sequence (P54764 whole entry, looked up): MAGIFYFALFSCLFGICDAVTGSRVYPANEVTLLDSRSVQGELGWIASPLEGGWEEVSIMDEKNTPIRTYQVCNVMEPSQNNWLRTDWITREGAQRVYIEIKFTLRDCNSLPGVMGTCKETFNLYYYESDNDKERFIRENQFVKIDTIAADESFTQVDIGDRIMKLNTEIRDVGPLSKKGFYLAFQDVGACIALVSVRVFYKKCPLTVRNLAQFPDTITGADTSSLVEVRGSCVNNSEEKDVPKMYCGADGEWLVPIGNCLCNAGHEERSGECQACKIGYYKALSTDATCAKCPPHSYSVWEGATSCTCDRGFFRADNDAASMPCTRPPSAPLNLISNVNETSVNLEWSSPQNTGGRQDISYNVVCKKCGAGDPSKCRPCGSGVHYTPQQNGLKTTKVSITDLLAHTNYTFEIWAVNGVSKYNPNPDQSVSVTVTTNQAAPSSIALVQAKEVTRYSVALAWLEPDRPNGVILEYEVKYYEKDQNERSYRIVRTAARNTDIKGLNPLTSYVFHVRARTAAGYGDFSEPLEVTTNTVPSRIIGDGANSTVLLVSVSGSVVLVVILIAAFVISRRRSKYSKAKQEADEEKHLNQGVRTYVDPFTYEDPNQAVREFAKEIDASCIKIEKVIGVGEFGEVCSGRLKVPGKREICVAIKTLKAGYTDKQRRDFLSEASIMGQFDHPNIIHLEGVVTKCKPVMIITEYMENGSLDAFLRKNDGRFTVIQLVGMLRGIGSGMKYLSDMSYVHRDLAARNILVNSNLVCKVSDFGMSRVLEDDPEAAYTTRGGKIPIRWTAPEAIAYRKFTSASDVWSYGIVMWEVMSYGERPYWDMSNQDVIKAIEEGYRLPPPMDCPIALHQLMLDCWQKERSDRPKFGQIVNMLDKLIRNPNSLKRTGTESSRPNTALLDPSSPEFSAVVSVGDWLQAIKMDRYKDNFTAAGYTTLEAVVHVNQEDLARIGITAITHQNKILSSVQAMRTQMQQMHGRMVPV
AKT2 (human), sequence (P31751 whole entry, looked up): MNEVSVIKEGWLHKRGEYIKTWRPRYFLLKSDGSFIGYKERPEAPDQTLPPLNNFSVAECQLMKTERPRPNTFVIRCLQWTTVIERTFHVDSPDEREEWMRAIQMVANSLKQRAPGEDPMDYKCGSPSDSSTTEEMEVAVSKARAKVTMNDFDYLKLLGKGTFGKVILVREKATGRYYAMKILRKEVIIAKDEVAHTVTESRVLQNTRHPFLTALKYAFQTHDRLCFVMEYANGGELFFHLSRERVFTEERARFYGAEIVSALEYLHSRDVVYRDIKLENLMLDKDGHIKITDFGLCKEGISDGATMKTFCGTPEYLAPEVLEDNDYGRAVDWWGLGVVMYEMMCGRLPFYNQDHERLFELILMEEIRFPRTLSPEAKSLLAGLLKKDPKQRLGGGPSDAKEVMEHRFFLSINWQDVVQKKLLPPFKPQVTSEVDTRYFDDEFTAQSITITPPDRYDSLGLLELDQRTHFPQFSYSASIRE
CSNK1G1 (human), sequence (Q9HCP0 whole entry, looked up): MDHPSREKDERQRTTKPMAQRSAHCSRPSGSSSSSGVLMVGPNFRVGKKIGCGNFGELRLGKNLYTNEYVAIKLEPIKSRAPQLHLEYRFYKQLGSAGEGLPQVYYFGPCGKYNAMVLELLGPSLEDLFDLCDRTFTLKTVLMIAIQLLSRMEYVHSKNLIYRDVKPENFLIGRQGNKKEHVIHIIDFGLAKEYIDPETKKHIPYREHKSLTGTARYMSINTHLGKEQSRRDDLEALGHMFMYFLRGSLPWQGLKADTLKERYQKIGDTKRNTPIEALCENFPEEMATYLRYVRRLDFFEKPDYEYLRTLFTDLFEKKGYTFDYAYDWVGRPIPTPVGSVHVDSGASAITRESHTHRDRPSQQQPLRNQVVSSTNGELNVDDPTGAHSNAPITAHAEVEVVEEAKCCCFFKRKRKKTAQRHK
CHUK (human), sequence (O15111 whole entry, looked up): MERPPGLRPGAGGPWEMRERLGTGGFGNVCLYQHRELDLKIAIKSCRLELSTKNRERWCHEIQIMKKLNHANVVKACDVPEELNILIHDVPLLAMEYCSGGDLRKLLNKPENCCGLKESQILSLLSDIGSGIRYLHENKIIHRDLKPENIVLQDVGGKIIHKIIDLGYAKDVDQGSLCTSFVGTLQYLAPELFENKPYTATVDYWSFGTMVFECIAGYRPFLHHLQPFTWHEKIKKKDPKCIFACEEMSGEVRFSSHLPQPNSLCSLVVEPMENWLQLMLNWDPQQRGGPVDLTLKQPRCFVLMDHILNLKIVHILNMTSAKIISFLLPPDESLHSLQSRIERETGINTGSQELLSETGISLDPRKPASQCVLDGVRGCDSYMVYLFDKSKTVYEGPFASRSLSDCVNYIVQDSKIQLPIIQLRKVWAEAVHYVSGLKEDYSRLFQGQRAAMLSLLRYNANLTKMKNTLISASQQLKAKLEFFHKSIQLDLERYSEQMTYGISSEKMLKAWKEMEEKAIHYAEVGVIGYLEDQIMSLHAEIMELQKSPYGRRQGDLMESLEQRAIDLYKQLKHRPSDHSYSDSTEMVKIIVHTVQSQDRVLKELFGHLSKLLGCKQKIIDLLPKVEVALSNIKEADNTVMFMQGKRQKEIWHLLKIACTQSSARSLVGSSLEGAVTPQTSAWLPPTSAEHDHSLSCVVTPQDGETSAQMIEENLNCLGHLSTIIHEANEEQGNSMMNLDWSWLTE
EPHB6 (human), sequence (O15197 whole entry, looked up): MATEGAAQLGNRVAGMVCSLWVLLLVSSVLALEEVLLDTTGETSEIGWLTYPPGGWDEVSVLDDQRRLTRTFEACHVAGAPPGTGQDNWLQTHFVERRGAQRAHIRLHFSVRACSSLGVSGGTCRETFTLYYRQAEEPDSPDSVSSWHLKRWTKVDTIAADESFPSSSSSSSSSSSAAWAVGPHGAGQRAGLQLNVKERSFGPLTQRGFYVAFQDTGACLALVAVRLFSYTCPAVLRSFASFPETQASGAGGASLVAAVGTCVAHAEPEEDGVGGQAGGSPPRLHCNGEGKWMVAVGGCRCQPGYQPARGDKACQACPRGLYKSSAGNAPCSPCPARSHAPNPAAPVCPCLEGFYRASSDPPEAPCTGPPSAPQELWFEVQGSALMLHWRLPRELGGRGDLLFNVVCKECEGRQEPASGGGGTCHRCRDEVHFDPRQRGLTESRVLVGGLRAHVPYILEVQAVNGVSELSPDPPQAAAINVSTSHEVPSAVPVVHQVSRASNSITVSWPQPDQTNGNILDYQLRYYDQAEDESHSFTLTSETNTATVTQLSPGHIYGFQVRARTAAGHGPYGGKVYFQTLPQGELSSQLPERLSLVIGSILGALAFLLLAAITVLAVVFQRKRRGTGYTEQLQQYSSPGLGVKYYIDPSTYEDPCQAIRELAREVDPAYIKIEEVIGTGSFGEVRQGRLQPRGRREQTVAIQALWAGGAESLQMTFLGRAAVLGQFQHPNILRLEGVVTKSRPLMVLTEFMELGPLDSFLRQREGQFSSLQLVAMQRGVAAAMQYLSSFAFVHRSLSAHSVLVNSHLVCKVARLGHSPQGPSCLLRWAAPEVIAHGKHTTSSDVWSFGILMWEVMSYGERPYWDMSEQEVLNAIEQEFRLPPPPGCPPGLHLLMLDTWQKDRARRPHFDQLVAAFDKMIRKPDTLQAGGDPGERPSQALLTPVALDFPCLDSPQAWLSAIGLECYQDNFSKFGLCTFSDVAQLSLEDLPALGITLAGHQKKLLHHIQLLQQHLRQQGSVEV
ZAP70 (human), sequence (P43403 whole entry, looked up): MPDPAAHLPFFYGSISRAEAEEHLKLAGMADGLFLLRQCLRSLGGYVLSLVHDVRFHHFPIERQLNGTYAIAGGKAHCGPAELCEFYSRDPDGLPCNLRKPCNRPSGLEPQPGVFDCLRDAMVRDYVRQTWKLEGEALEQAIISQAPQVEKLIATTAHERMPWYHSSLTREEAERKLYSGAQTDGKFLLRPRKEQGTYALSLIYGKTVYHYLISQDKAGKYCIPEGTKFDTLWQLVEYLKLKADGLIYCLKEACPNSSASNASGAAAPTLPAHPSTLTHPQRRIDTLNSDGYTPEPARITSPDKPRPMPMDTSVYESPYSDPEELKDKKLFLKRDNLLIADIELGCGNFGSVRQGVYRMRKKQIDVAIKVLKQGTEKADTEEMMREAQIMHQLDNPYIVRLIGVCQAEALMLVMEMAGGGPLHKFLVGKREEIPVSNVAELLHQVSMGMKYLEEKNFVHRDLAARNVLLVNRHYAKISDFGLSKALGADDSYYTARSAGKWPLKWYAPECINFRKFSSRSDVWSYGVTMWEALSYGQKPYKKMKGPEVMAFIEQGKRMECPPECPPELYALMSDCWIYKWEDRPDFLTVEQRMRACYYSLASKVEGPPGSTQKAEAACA

## CCc1ccc(C(=O)Nc2cc(CN3CCN(C)CC3)cc(C(F)(F)F)c2)cc1C#Cc1cnc2ccnn2c1
PRKCE (human)
  kinase still bound, per cent of control: 94%
MAP3K12 (human)
  kinase still bound, per cent of control: 81%
NUAK2 (human)
  kinase still bound, per cent of control: 100%
RIPK4 (human)
  kinase still bound, per cent of control: 100%
RPS6KB1 (human)
  kinase still bound, per cent of control: 100%
BLK (human)
  kinase still bound, per cent of control: 100%
[1]
  kinase still bound, per cent of control: 70%
PLK4 (human)
  kinase still bound, per cent of control: 100%
MAP2K6 (human)
  kinase still bound, per cent of control: 100%
EPHA4 (human)
  kinase still bound, per cent of control: 97%
SRPK3 (human)
  kinase still bound, per cent of control: 92%
CDK4 CCND1 (human)
  kinase still bound, per cent of control: 100%
NEK3 (human)
  kinase still bound, per cent of control: 78%
ZAP70 (human)
  kinase still bound, per cent of control: 100%
BMPR1A (human)
  kinase still bound, per cent of control: 100%
LRRK2 (human)
  kinase still bound, per cent of control: 86%
CHUK (human)
  kinase still bound, per cent of control: 100%
MYLK (human)
  kinase still bound, per cent of control: 100%
AKT2 (human)
  kinase still bound, per cent of control: 83%
BTK (human)
  kinase still bound, per cent of control: 100%
CSNK1E (human)
  kinase still bound, per cent of control: 85%
CSNK1G1 (human)
  kinase still bound, per cent of control: 85%
RPS6KA6 KD2 (human)
  kinase still bound, per cent of control: 100%
EPHB6 (human)
  kinase still bound, per cent of control: 100%
MAP4K3 (human)
  kinase still bound, per cent of control: 100%
ITK (human)
  kinase still bound, per cent of control: 100%
FLT4 (human)
  kinase still bound, per cent of control: 85%
ABL2 (human)
  kinase still bound, per cent of control: 39%
IRAK4 (human)
  kinase still bound, per cent of control: 100%
STK32B (human)
  kinase still bound, per cent of control: 100%
EPHA3 (human)
  kinase still bound, per cent of control: 47%
MELK (human)
  kinase still bound, per cent of control: 95%
MKNK1 (human)
  kinase still bound, per cent of control: 91%
PRKX (human)
  kinase still bound, per cent of control: 100%
[2]
  kinase still bound, per cent of control: 100%
IGF1R (human)
  kinase still bound, per cent of control: 100%
CDK18 (human)
  kinase still bound, per cent of control: 100%
FLT1 (human)
  kinase still bound, per cent of control: 84%
BMP2K (human)
  kinase still bound, per cent of control: 86%
[3]
  kinase still bound, per cent of control: 100%
